The text below walks through data of patent US20180141939A1, “SOLID FORMS OF A BET INHIBITOR” (Gilead Sciences, Inc., priority 2016, published 2018).

Holding throughout (type): physicochemical
Data set [1] can be described thus: Kinetic aqueous solubility / solubility in water of salt and co-crystal forms.
A short description of data set [2]: Dynamic vapor sorption (DVS) moisture uptake. To be noted: for moisture uptake (DVS): at about 90% RH; for hygroscopicity (DVS analysis): classification in words.
A short description of data set [3]: Relative stability of solid forms (competitive slurries). The conditions noted are these: for relative stability in competitive slurries with Compound I phosphate Form I: MeOH/EtOAc solvent system.
Data set [4] can be described thus: Aqueous vapor stress (high humidity stress, about 85% RH), deliquescence. To be noted: for deliquescence when stressed at about 85% RH: about 24 h where stated; for deliquescence at elevated RH: elevated relative humidity. As for the experimental part:
Crystalline forms of Compound I were analyzed by at least one of X-ray powder diffraction (XRPD), differential scanning calorimetry (DSC), thermogravimetric analysis (TGA), dynamic vapor sorption (DVS), solution proton nuclear magnetic resonance spectroscopy (^1H NMR), KF titration, and aqueous vapor stress experiments. XRPD patterns of Compound I were collected with a PANalytical X'Pert PRO MPD diffractometer using mostly the following experimental setting: 45 kV, 40 mA, Kα1=1.5406 Å, scan range 2-40° 2θ, step size 0.0167° 2θ. The DSC analysis was conducted on a TA Instruments Q2000 differential scanning calorimeter using 10° C./min heating rate over the 20° C. to 250° C. temperature range or above. The TGA analysis was conducted on a TA Instruments 2950 thermogravimetric analyzer using a 10° C./min heating rate over the 20° C. to 350° C. temperature range. ^1H NMR spectra were acquired with an Agilent DD2-400 spectrometer using DMSO-d6 with tetramethylsilane (TMS). KF analysis was performed using a Mettler Toledo DL39 Karl Fischer titrator with a Stromboli drying oven attachment set at about 110° C. Aqueous vapor stress experiments were conducted by placing a sample in a 85% RH jar for a specified duration.

The term solubility denotes the concentration that dissolves in the medium under given conditions.

Structures can show the parent of a compound that is named as a salt.

For the molecule `Cc1noc(C)c1-c1cc(C(O)(c2ccccn2)c2ccccn2)c2nc(C3CC3)[nH]c2c1` [Compound I phosphate Form III, (2-cyclopropyl-6-(3,5-dimethylisoxazol-4-yl)-1H-benzo[d]imidazol-4-yl)di(pyridin-2-yl)methanol], the solubility in data set [1] (water) was about 6000 µg/mL. In addition, in data set [2], the “moisture uptake (DVS)” value is “about 0.7%” and the “hygroscopicity (DVS analysis)” value is on record as “slightly hygroscopic”.

As for `Cc1noc(C)c1-c1cc(C(O)(c2ccccn2)c2ccccn2)c2nc(C3CC3)[nH]c2c1` [Compound I phosphate Form V, (2-cyclopropyl-6-(3,5-dimethylisoxazol-4-yl)-1H-benzo[d]imidazol-4-yl)di(pyridin-2-yl)methanol], the “relative stability in competitive slurries with Compound I phosphate Form I” value in data set [3] was “complete conversion of Compound I phosphate Form V to Compound I phosphate Form I”.

In the case of `Cc1noc(C)c1-c1cc(C(O)(c2ccccn2)c2ccccn2)c2nc(C3CC3)[nH]c2c1` [Compound I Form II, (2-cyclopropyl-6-(3,5-dimethylisoxazol-4-yl)-1H-benzo[d]imidazol-4-yl)di(pyridin-2-yl)methanol], the “thermodynamic / physical stability of the solid form” value in data set [3] (statement in words) is on record as “unstable mono-IPA solvate that may convert to Compound I Form I at ambient conditions”.

Turning to `Cc1noc(C)c1-c1cc(C(O)(c2ccccn2)c2ccccn2)c2nc(C3CC3)[nH]c2c1` [Compound I mesylate Material G, (2-cyclopropyl-6-(3,5-dimethylisoxazol-4-yl)-1H-benzo[d]imidazol-4-yl)di(pyridin-2-yl)methanol], in data set [2], the “moisture uptake (DVS)” value is reported as “about 25%” and the “hygroscopicity (DVS analysis)” value is on record as “very hygroscopic”.

With `Cc1noc(C)c1-c1cc(C(O)(c2ccccn2)c2ccccn2)c2nc(C3CC3)[nH]c2c1` [Compound I besylate Material A, (2-cyclopropyl-6-(3,5-dimethylisoxazol-4-yl)-1H-benzo[d]imidazol-4-yl)di(pyridin-2-yl)methanol], the kinetic aqueous solubility entry in data set [1] is given as “about 1 mg/mL”. For the same molecule, in data set [4], the “deliquescence when stressed at about 85% RH” value was “does not show any signs of deliquescence”.

As for `Cc1noc(C)c1-c1cc(C(O)(c2ccccn2)c2ccccn2)c2nc(C3CC3)[nH]c2c1` [Compound I sulfate Material A, (2-cyclopropyl-6-(3,5-dimethylisoxazol-4-yl)-1H-benzo[d]imidazol-4-yl)di(pyridin-2-yl)methanol], the kinetic aqueous solubility entry in data set [1] is “about 4 mg/mL”. Moreover, in data set [4], the “deliquescence when stressed at about 85% RH” value is reported as “no evidence of deliquescence”.

Turning to `Cc1noc(C)c1-c1cc(C(O)(c2ccccn2)c2ccccn2)c2nc(C3CC3)[nH]c2c1` [Compound I napsylate Material A, (2-cyclopropyl-6-(3,5-dimethylisoxazol-4-yl)-1H-benzo[d]imidazol-4-yl)di(pyridin-2-yl)methanol], the “deliquescence when stressed at about 85% RH” value in data set [4] was “does not deliquesce”.

Consider `Cc1noc(C)c1-c1cc(C(O)(c2ccccn2)c2ccccn2)c2nc(C3CC3)[nH]c2c1` [Compound I mesylate Material C, (2-cyclopropyl-6-(3,5-dimethylisoxazol-4-yl)-1H-benzo[d]imidazol-4-yl)di(pyridin-2-yl)methanol], for which, in data set [1], the kinetic aqueous solubility result is “about 13 mg/mL”. Also, the “deliquescence at elevated RH” value in data set [4] is “a tendency to deliquesce”.

With `Cc1noc(C)c1-c1cc(C(O)(c2ccccn2)c2ccccn2)c2nc(C3CC3)[nH]c2c1` [Compound I gentisate Material A, (2-cyclopropyl-6-(3,5-dimethylisoxazol-4-yl)-1H-benzo[d]imidazol-4-yl)di(pyridin-2-yl)methanol], the “deliquescence when stressed at about 85% RH” value in data set [4] was “does not deliquesce”.

As to `Cc1noc(C)c1-c1cc(C(O)(c2ccccn2)c2ccccn2)c2nc(C3CC3)[nH]c2c1` [Compound I mesylate Material A, (2-cyclopropyl-6-(3,5-dimethylisoxazol-4-yl)-1H-benzo[d]imidazol-4-yl)di(pyridin-2-yl)methanol], the kinetic aqueous solubility entry in data set [1] was “about 5 mg/mL”. Besides, the “deliquescence at elevated RH” value in data set [4] is reported as “shows evidence of deliquescence”.

Turning to `Cc1noc(C)c1-c1cc(C(O)(c2ccccn2)c2ccccn2)c2nc(C3CC3)[nH]c2c1` [Compound I phosphate Form IV, (2-cyclopropyl-6-(3,5-dimethylisoxazol-4-yl)-1H-benzo[d]imidazol-4-yl)di(pyridin-2-yl)methanol], the “relative stability in competitive slurries with Compound I phosphate Form I” value in data set [3] was “complete conversion of Compound I phosphate Form IV to Compound I phosphate Form I”.

For the molecule `Cc1noc(C)c1-c1cc(C(O)(c2ccccn2)c2ccccn2)c2nc(C3CC3)[nH]c2c1` [Compound I tosylate Form I, (2-cyclopropyl-6-(3,5-dimethylisoxazol-4-yl)-1H-benzo[d]imidazol-4-yl)di(pyridin-2-yl)methanol], the kinetic aqueous solubility entry in data set [1] was “about 3 mg/mL”. In addition, in data set [4], the “deliquescence when stressed at about 85% RH” value is given as “does not show any evidence of deliquescence”.

`Cc1noc(C)c1-c1cc(C(O)(c2ccccn2)c2ccccn2)c2nc(C3CC3)[nH]c2c1` [mixture of Compound I sulfate Material A and Compound I sulf] [(2-cyclopropyl-6-(3,5-dimethylisoxazol-4-yl)-1H-benzo[d]imidazol-4-yl)di(pyridin-2-yl)methanol]: in data set [1], the kinetic aqueous solubility entry is recorded as “about 4 mg/mL”.

As for `Cc1noc(C)c1-c1cc(C(O)(c2ccccn2)c2ccccn2)c2nc(C3CC3)[nH]c2c1` [Compound I sulfate Material B, (2-cyclopropyl-6-(3,5-dimethylisoxazol-4-yl)-1H-benzo[d]imidazol-4-yl)di(pyridin-2-yl)methanol], the kinetic aqueous solubility result in data set [1] is “about 4 mg/mL”. In addition, in data set [4], the “deliquescence when stressed at about 85% RH” value is “no evidence of deliquescence”.

As for `Cc1noc(C)c1-c1cc(C(O)(c2ccccn2)c2ccccn2)c2nc(C3CC3)[nH]c2c1` [Compound I edisylate Material A, (2-cyclopropyl-6-(3,5-dimethylisoxazol-4-yl)-1H-benzo[d]imidazol-4-yl)di(pyridin-2-yl)methanol], in data set [1], the kinetic aqueous solubility entry is reported as “about 1 mg/mL”. In data set [4], the “deliquescence when stressed at about 85% RH” value is recorded as “does not show any signs of deliquescence”.

Consider `Cc1noc(C)c1-c1cc(C(O)(c2ccccn2)c2ccccn2)c2nc(C3CC3)[nH]c2c1` [Compound I HCl Material B, (2-cyclopropyl-6-(3,5-dimethylisoxazol-4-yl)-1H-benzo[d]imidazol-4-yl)di(pyridin-2-yl)methanol], for which the kinetic aqueous solubility result in data set [1] is “about 6 mg/mL”. For the same molecule, the “deliquescence when stressed at about 85% RH” value in data set [4] is “evidence of deliquescence”.

Turning to `Cc1noc(C)c1-c1cc(C(O)(c2ccccn2)c2ccccn2)c2nc(C3CC3)[nH]c2c1` [Compound I xinafoate Form I, (2-cyclopropyl-6-(3,5-dimethylisoxazol-4-yl)-1H-benzo[d]imidazol-4-yl)di(pyridin-2-yl)methanol], in data set [4], the “deliquescence when stressed at about 85% RH” value is given as “does not deliquesce”.

For the molecule `Cc1noc(C)c1-c1cc(C(O)(c2ccccn2)c2ccccn2)c2nc(C3CC3)[nH]c2c1` [Compound I tartrate Material A, (2-cyclopropyl-6-(3,5-dimethylisoxazol-4-yl)-1H-benzo[d]imidazol-4-yl)di(pyridin-2-yl)methanol], the kinetic aqueous solubility entry in data set [1] is “about 15 mg/mL”. Moreover, in data set [4], the “deliquescence when stressed at about 85% RH” value is reported as “does not deliquesce”.
